Laboratory results from patent US20080318992A1, “METHOD OF USING A PKC INHIBITOR TO REVERSE PREFRONTAL CORTICAL DECLINES” (YALE UNIVERSITY, priority 2007, published 2008).
Where two headings read alike, the source gives them in different places.

Legend:
[1] = test system: aged rats; settings: for change in percent-correct from mean 2-day baseline: 45 min prior to testing, N=5 aged rats
[2] = test system: aged rhesus monkeys; assay: Spatial delayed response task (working memory) in aged rhesus monkeys; format: in vivo, rhesus monkeys (Macaca mulatta); settings: for delayed response performance: 1 h prior to testing
From the text: Performance on this task is reliant upon the integrity of the dorsolateral prefrontal cortex (Goldman-Rakic, 1987) and is consistently impaired in aged rhesus monkey (Bartus, et al., 1978; Rapp and Amaral, 1989).
The present study used 13 aged female rhesus monkeys (Macaca mulatta) ranging in age from 18 to 35 years at the time of testing. Actual birthdates were not available for several of the wild-caught animals and ages were estimated based on health records, teeth, and known history; several had been in the Yale University colony for more than 15 years. Monkeys were individually housed and maintained on a diet of Purina monkey chow (St. Louis, Mo.) supplemented with fruit.
Animals were tested at the same time of day immediately prior to feeding. Highly palatable food rewards (e.g., peanuts, raisins, or chocolate chips) were utilized during testing to minimize the need for dietary regulation. Animals were tested twice a week with 3-4 days separating each test session (e.g., Monday and Thursday). Cognitive testing of monkeys occurred in a Wisconsin General Testing Apparatus (WGTA) situated in a sound-attenuating room. Background masking noise (60 dB, wideband) was used to minimize auditory distractions.
The monkeys were trained on the spatial delayed response task as described previously (Arnsten, A. F., et al., J. Neurosci. (1988) δ: 4287-4298). For the delayed response task, the animal watched as the experimenter baited one of several food-wells with a food reward. The number of food-wells varied from two to four wells, depending on the monkey's performance level and experience with the task. Care was taken by the experimenter to ensure that the animal attended the baiting procedure. After baiting, food-wells were covered with identical plaques, and an opaque screen was lowered between the animal and the food-wells for a specified delay. At the end of the delay, the screen was raised and the animal was allowed to choose. Reward was quasi-randomly distributed between the wells. Five delay lengths (referred to as delays A through E) were quasi-randomly distributed over 30 trials. The shortest of these delays was ˜2 s (the “0” s, A delay). The remaining delays were titrated for individual monkeys such that each monkey maintained a baseline performance of 60-73% correct. For example, the delays for one animal might be A=0, B=5, C=10, D=15, and E=20 s.
Data were analyzed by comparing performance following treatment using a one-way repeated-measures ANOVA. […] Values were represented as means±SEM. Linear relationships between treatment response at the optimal dose of CHEL and age of the monkey (years) were analyzed in 10 monkeys with known birthdates using Pearson's test. In all cases, an α level of 0.05 was considered statistically significant.
All animals received all treatments conditions, with at least 7 days between treatments. The order of treatment administration was quasi-randomized.

[3] = systemic administration; cited from earlier work
[4] = test system: rat medial prefrontal cortex; settings: systemic administration and infusions directly to the rat medial prefrontal cortex via implanted cannula; cited from earlier work

COc1ccc2c(c[n+](C)c3c4cc5c(cc4ccc23)OCO5)c1OC [CHEL, Chelerythrine]
change in percent-correct from mean 2-day baseline ([1]; 0.3 mg/kg subcutaneous, p=0.691 vs vehicle): 8.6±5.4 % improvement
change in percent-correct from mean 2-day baseline ([1]; 1.0 mg/kg subcutaneous, p=0.047 vs vehicle): 26±6.4 % improvement
performance times (non-specific motor effects) ([1]; 0.3 or 1.0 mg/kg subcutaneous, data not shown): performance times did not differ as a result of treatment
performance of 3 oldest monkeys better than 3 youngest monkeys ([2]; 0.3 μg/kg oral): > 20%
delayed response performance ([2]; 0.3 μg/kg oral, N=13 aged monkeys, p=0.013 vs vehicle): 74.5±2.6 % correct
spatial working memory performance 4 hours after oral administration ([2]; 0.3 ug/kg oral, 4 hrs after administration, p=0.012 compared to vehicle (FIG. 5)): improved performance
performance of the 3 oldest monkeys ([2]; 0.3 μg/kg oral, 3 oldest monkeys, mean age 32.3 years): 85.6±4.4 % correct
performance of the 3 youngest aged monkeys ([2]; 0.3 μg/kg oral, 3 youngest aged monkeys, mean age 20.7 years): 65.0±4.8 % correct
delayed response performance ([2]; 3.0 μg/kg oral, N=13, p=0.151 vs vehicle): 71.5±1.9 % correct
delayed response performance ([2]; 30.0 μg/kg oral, N=13, p=0.406 vs vehicle): 66.1±1.8%
spatial working memory performance at best dose ([2]; individual best dose for all monkeys, oral, 4 hours, p=0.001 (FIG. 5)): reliably improved performance
serious deficits at high doses ([2]; oral, even at high doses (150 ug/kg), 4 hours (FIG. 5)): no serious deficits were found
working memory impairments following administration of cirazoline [3]: reverse working memory impairments
stress induced working memory impairments [4]: capable of reversing stress induced working memory impairments
